{"source": "PubChem BioAssay AID1919003", "about": "(Molecular Pharmacology Branch, DTP, NCI, 2023)", "tested_on": "786-0 complex spheroids with HUVEC/MSC, growth % test/control", "assay": "Anticancer human tumor 786-0 cell line growth inhibition [AhR];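 as to all read-outs here: compound exposure lasted seven days before the read-out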", "conditions": "for IC50: curve of first compound; for viability, T/C: stronger effect = lower value", "excerpt": "Multicellular complex tumor spheroid response to aryl hydrocarbon receptor antagonists in combination with a variety of drugs and investigational agents in selected tumor cell lines\nThe current study was undertaken to assess response to aryl hydrocarbon receptor antagonists in combination with standard-of-care drugs and investigational agents in solid tumor complex spheroid models. Complex spheroids include a stromal component modeled by human endothelial cells (HUVEC) and fibroblasts modeled by human mesenchymal stem cells (MSCs). The concentration ranges selected for each drug and investigational agent were based upon clinically achievable concentrations if the clinical Cmax of the agent was known.\nCompounds. The drugs and investigational agents: BAY 2416964 (NSC825713), GNF351 (NSC835774), CH-223191 (NSC835775), CPI-455 (NSC825282), aza-TdCyd (NSC777586), decitabine (NSC127716), belinostat (NSC758774), entinostat (NSC756642), pevonedistat (NSC761192), tazemetostat (NSC777109), talazoparib (NSC765396), olaparib (NSC753686), selinexor (NSC780203), nedisertib (M3814, NSC802822), bortezomib (NSC756655), venetoclax (NSC766270), doxorubicin (NSC123127), elimusertib (BAY189344, NSC800525), ceralasertib (AZD6738, NSC777638), TAK-243 (NSC785004), alisertib (NSC759677), etoposide (NSC141540), topotecan (NSC609699), eribulin (NSC707389), gemcitabine (NSC613327), carboplatin (NSC241240), cisplatin (NSC119875), and SN-38 (NSC673596) were obtained from the National Cancer Institute (NCI) Developmental Therapeutics Program Chemical Repository (32). The FDA-approved anticancer drug set is available from the Developmental Therapeutics Program at https://dtp.cancer.gov/organization/dscb/obtaining/available plates.htm. […] The stock solutions were prepared in dimethyl sulfoxide (DMSO, Sigma-Aldrich, St. Louis, MO, cat. D2650), except for the platinum compounds which were prepared in saline (Quality Biological, Gaithersburg, MD, cat. 114-055-101), at 800-fold the tested concentration and stored at -70 degrees C prior to their use. All drugs and investigational agents were tested over a range starting from a high concentration at or near the clinical Cmax and decreasing in half-log increments. If the clinical Cmax for an agent had not been determined, the highest concentration tested was 10 microM (Table 1).\nCell Culture. All cells were maintained in an incubator at 37 degrees C and 5% CO2 with 95% humidity. The PDC lines were cultured according to standard operating procedures established by the NCI PDMR (https://pdmr.cancer.gov). Briefly, all PDCs were thawed and cultured in Matrigel-coated flasks prepared with a working solution of 1X Ham's F-12 nutrient mix, without supplementation (Invitrogen, Waltham, MA, cat. 11765054), 100 U/mL penicillin-streptomycin (Invitrogen, cat. 15140122), and 2.5% Matrigel (Corning Inc., Corning, NY, cat. 354248) for the first three passages. All PDCs were cultured in complete DMEM/F-12 media containing advanced DMEM/F-12 (Invitrogen, cat. 12634028), 4.9% defined fetal bovine serum, heat inactivated (HyClone Laboratories Inc., Logan, UT, cat. SH30070.03HI), 389 ng/mL hydrocortisone (Sigma-Aldrich, cat. H4001), 9.7 ng/mL human EGF recombinant protein (Invitrogen, cat. PHG0313), 23.4 microg/mL adenine (Sigma-Aldrich, cat. A2786), 97.3 U/mL penicillin-streptomycin (Invitrogen, cat. 15140122), 1.9 mM L-glutamine (Invitrogen, cat. 25030081), and 9.7 microM Y-27632 dihydrochloride (Tocris Bioscience, Bristol, United Kingdom, cat. 1254). The PDCs were cultured in complete DMEM/F12 media without 10 microM Y-27632 dihydrochloride for at least two passages prior to the screen. The established cell lines NCI-H1341 and […] were cultured in DMEM/F-12, HEPES (Invitrogen, cat. 11330032), 5% defined fetal bovine serum (HyClone Laboratories Inc., cat. SH30070.03), ITS premix universal culture supplement [insulin (5 microg/mL), transferrin (5 microg/mL), and selenious acid (5 ng/mL)] […]"}
{"smiles": "Cn1ncnc1C1c2n[nH]c(=O)c3cc(F)cc(c23)NC1c1ccc(F)cc1", "note": "(stereo not given) + Cc1cncc(-c2nc(NCCc3c[nH]c4ccccc34)c3ncn(C(C)C)c3n2)c1", "values": [{"measurement": "IC50", "setting": "second compound 0.1 µM", "value": "> 100", "unit": "nM"}, {"measurement": "IC50", "setting": "second compound 0.316 µM", "value": "> 100", "unit": "nM"}, {"measurement": "IC50", "setting": "second compound 1 µM", "value": "> 100", "unit": "nM"}, {"measurement": "IC50", "setting": "second compound 3.16 µM", "value": "> 100", "unit": "nM"}, {"measurement": "IC50", "setting": "second compound 10 µM", "value": "< 0.316", "unit": "nM"}, {"measurement": "viability, T/C", "setting": "second compound 0.1 µM, first compound 0.000316 µM", "value": 122, "unit": "%"}, {"measurement": "viability, T/C", "setting": "second compound 0.1 µM, first compound 0.001 µM", "value": 120, "unit": "%"}, {"measurement": "viability, T/C", "setting": "second compound 0.1 µM, first compound 0.00316 µM", "value": 120, "unit": "%"}, {"measurement": "viability, T/C", "setting": "second compound 0.1 µM, first compound 0.01 µM", "value": 117, "unit": "%"}, {"measurement": "viability, T/C", "setting": "second compound 0.1 µM, first compound 0.0316 µM", "value": 120, "unit": "%"}, {"measurement": "viability, T/C", "setting": "second compound 0.1 µM, first compound 0.1 µM", "value": 115, "unit": "%"}, {"measurement": "viability, T/C", "setting": "second compound 0.316 µM, first compound 0.000316 µM", "value": 117, "unit": "%"}, {"measurement": "viability, T/C", "setting": "second compound 0.316 µM, first compound 0.001 µM", "value": 119, "unit": "%"}, {"measurement": "viability, T/C", "setting": "second compound 0.316 µM, first compound 0.00316 µM", "value": 110, "unit": "%"}, {"measurement": "viability, T/C", "setting": "second compound 0.316 µM, first compound 0.01 µM", "value": 116, "unit": "%"}, {"measurement": "viability, T/C", "setting": "second compound 0.316 µM, first compound 0.0316 µM", "value": 111, "unit": "%"}, {"measurement": "viability, T/C", "setting": "second compound 0.316 µM, first compound 0.1 µM", "value": 116, "unit": "%"}, {"measurement": "viability, T/C", "setting": "second compound 1 µM, first compound 0.000316 µM", "value": 112, "unit": "%"}, {"measurement": "viability, T/C", "setting": "second compound 1 µM, first compound 0.001 µM", "value": 111, "unit": "%"}, {"measurement": "viability, T/C", "setting": "second compound 1 µM, first compound 0.00316 µM", "value": 118, "unit": "%"}, {"measurement": "viability, T/C", "setting": "second compound 1 µM, first compound 0.01 µM", "value": 99.7, "unit": "%"}, {"measurement": "viability, T/C", "setting": "second compound 1 µM, first compound 0.0316 µM", "value": 105, "unit": "%"}, {"measurement": "viability, T/C", "setting": "second compound 1 µM, first compound 0.1 µM", "value": 119, "unit": "%"}, {"measurement": "viability, T/C", "setting": "second compound 3.16 µM, first compound 0.000316 µM", "value": 76.6, "unit": "%"}, {"measurement": "viability, T/C", "setting": "second compound 3.16 µM, first compound 0.001 µM", "value": 77.5, "unit": "%"}, {"measurement": "viability, T/C", "setting": "second compound 3.16 µM, first compound 0.00316 µM", "value": 78.7, "unit": "%"}, {"measurement": "viability, T/C", "setting": "second compound 3.16 µM, first compound 0.01 µM", "value": 75.8, "unit": "%"}, {"measurement": "viability, T/C", "setting": "second compound 3.16 µM, first compound 0.0316 µM", "value": 72.8, "unit": "%"}, {"measurement": "viability, T/C", "setting": "second compound 3.16 µM, first compound 0.1 µM", "value": 80.4, "unit": "%"}, {"measurement": "viability, T/C", "setting": "second compound 10 µM, first compound 0.000316 µM", "value": 19.2, "unit": "%"}, {"measurement": "viability, T/C", "setting": "second compound 10 µM, first compound 0.001 µM", "value": 19.2, "unit": "%"}, {"measurement": "viability, T/C", "setting": "second compound 10 µM, first compound 0.00316 µM", "value": 18.9, "unit": "%"}, {"measurement": "viability, T/C", "setting": "second compound 10 µM, first compound 0.01 µM", "value": 17.7, "unit": "%"}, {"measurement": "viability, T/C", "setting": "second compound 10 µM, first compound 0.0316 µM", "value": 17.4, "unit": "%"}, {"measurement": "viability, T/C", "setting": "second compound 10 µM, first compound 0.1 µM", "value": 21.4, "unit": "%"}]}
